Results: publication PMC10472861, “Potent inhibition of human tyrosinase inhibitor by verproside from the whole plant of Pseudolysimachion rotundum var. subintegrum” (Journal of Enzyme Inhibition and Medicinal Chemistry, 2023)
“Also recorded” adds a separate entry of the source.

Experiments:
[1] = target: T1, Mushroom tyrosinase (mTyr) (Agaricus bisporus, UniProt C7FF04); experiment: Mushroom tyrosinase inhibition, L-tyrosine substrate (monophenolase); assay type: biochemical; conditions: for inhibition at 100 µM: read-out: Mushroom Tyrosinase L-Tyrosine 100 µM inhibition (%); for Type of inhibition (monophenolase): L-tyrosine, Lineweaver-Burk and Dixon plots
T1 construct: purchased Sigma Chemical Co. T3824-50KU
Target sequence in this assay (C7FF04 1-392): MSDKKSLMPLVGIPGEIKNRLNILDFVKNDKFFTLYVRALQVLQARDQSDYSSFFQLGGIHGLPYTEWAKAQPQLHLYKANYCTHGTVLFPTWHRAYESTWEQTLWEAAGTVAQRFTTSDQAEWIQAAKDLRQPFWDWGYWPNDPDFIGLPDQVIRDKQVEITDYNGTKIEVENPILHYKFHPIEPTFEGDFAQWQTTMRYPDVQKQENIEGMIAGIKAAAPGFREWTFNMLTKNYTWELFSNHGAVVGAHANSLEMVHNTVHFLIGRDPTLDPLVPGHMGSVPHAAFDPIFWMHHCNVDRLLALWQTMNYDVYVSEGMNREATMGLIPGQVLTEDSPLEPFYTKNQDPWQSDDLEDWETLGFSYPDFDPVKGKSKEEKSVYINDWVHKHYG

[2] = tested on: mushroom tyrosinase; experiment: Affinity-based ultrafiltration UPLC-QTOF-MS binding experiment; conditions: UPLC-QTOF-MS peak area in 1000 ppm extract, not exposed to enzyme
Method: (§1) Affinity-based ultrafiltration was performed as previously described by Zuo et al. and Wang et al.[15]^,[19]^,[23]. First, […] of 0.25 M phosphate buffer (pH 6.8) with 10% glycerol was added to 13 μL of mushroom tyrosinase (144 U in the same phosphate buffer solution) and 100 μL of 1000 mg/mL extract (the test solution was consistently 3.3%). The final concentration of the extract was adjusted to 1000 ppm. The mixture was incubated for 15 or 50 min at 37 °C on a plate shaker. Then, the sample was centrifuged at 13,000 rpm for 20 min, and the supernatant was collected for analysis. The supernatant solution was filtered through a membrane (PTFE 0.2 μm, hydrophobic, Advantec, Japan), and 2 μL of each solution was injected for UPLC-PDA-QTOF-MS analysis.
(§2) The compounds from the P. rotundum var. subintegrum extract were analysed by UPLC-PDA-ESI-QTOF-MS. […] MS was performed in negative ion mode ([M − H]^−). N2 was used as the desolvation gas, the desolvation temperature was set to 350 °C at a flow rate of 400 L/h with a source temperature of 100 °C. The capillary and cone voltages were set to 2300 and 50 V, respectively. The data for each sample were collected with a scan time of 0.25 s and a 0.01 s interscan delay. Exact MS, MS/MS, and elemental analysis were confirmed using MassLynx software incorporated into the Waters instrument.

[3] = target: T2, mushroom tyrosinase (Agaricus bisporus, UniProt C7FF04); experiment: as above; conditions: for after tyrosinase (area): UPLC-QTOF-MS peak area in 1000 ppm extract after incubation with mTyr; for Relative metabolite intensity upon treatment with mTyr: extract treated with mTyr, 15 min preincubation
T2 construct: purchased Sigma Chemical Co. T3824-50KU
T2 sequence (C7FF04 1-392): as above
Method: as §1, §2

[4] = target: T1, Mushroom tyrosinase (mTyr); experiment: Mushroom tyrosinase inhibition, L-DOPA substrate (diphenolase); assay type: biochemical
Target sequence in this assay (C7FF04 1-392 limits assumed): as the sequence (C7FF04 1-392) above

[5] = target: T3, recombinant human tyrosinase (hTyr) (Homo sapiens, UniProt P14679); experiment: Human tyrosinase inhibition, L-DOPA substrate; assay type: biochemical
T3 construct: His-tag; purchased Enzo Life Sciences BML-SE535-0100
T3 sequence (P14679 19-529): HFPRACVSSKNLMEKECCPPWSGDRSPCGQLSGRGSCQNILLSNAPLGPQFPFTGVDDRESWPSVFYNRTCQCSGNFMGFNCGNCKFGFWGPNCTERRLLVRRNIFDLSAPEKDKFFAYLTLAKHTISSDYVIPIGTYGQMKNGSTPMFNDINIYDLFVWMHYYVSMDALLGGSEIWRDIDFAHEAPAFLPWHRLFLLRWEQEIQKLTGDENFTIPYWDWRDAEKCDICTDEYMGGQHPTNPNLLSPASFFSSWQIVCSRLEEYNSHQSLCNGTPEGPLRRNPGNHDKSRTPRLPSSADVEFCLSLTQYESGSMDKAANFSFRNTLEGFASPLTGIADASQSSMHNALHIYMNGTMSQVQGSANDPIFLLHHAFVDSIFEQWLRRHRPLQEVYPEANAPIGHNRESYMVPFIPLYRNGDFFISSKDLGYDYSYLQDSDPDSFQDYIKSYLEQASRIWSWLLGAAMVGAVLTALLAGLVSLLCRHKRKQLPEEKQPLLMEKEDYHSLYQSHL
Method: The enzymatic activities of tyrosinase were tested in vitro with the substrates and inhibitors known to interact with mushroom and mammalian tyrosinases (http://www.brenda-enzymes.info). The Michaelis-Menten constant (Km) of proteins was calculated from Lineweaver-Burk plots for 1/V0 versus 1/[substrate]. Mushroom tyrosinase (mTyr, EC 1.14.18.1, Sigma Chemical Co., T3824-50KU) was used as described previously[9] with some modifications with either 3,4-Dihydroxy-L-phenylalanine (L-DOPA, D9628-5G) or L-tyrosine (T3754-50G) as the substrate. In the spectrophotometric experiments, the initial velocity (vi) of enzymatic activity was monitored by observing dopachrome formation at 475 nm with a UV–vis spectrophotometer (SpectraMax M4, Molecular Devices, Sunnyvale, CA, USA) at 37 °C. The reaction was performed in a 96-well plate. All samples were first dissolved in dimethyl sulfoxide (DMSO) at a concentration of 2 mM. […] The activity of recombinant human tyrosinas (hTyr, His-tag, Enzo® Life Sciences, NY, USA, Cat. No. BML-SE535-0100) was determined using L-DOPA as a substrate, and the procedure involved a previously described absorption assay. […] The reaction was incubated for 10 min at 37 °C and was monitored at 475 nm for dopachrome formation on a SpectraMax M4 multimode detection platform (Molecular Devices). […]

[6] = target: T3, recombinant human tyrosinase (hTyr); experiment: Human tyrosinase inhibition, L-tyrosine substrate; assay type: biochemical
[7] = tested on: Melan-A cells; experiment: CCK-8 cell viability assay, Melan-A; assay type: cell-based, murine; conditions: 48 h
Method: (§3) The B16F10 melanoma and Melan-A normal murine melanocyte cells were purchased from the American Type Culture Collection (ATCC), respectively. The B16F10 cells were cultured in complete Dulbecco's Modified Eagle's Medium (DMEM high glucose, Gibco) supplemented with 10% (v/v) Fetal Bovine Serum (FBS, Gibco, USA), 100 U/mL penicillin, 50 μg/ml streptomycin. The Melan-A cells were cultured in RPMI -1640 medium supplemented with 10% FBS, 2 mM L -glutamine, 200 nM 12 -o-tetradecanoyl phorbol -13-acetate (Sigma, USA), 100 U/mL penicillin, 50 μ g/ml streptomycin, and grown in a humidified atmosphere containing 5% CO 2 in ai r at 37°C.
(§4) The cells were seeded in 96 -well plates at a density of 5 × 10^3 cells/well in cultured medium. The cells were treated with the corresponding concentrations of verproside for 48 h. Cell viability was measured in triplicate using a Cell Counting Kit -8 (CCK -8; Dojindo Molecular Technologies, Rockville, MD, USA) . Absorbance was determined using an Epoch microplate reader (BioTek Instruments, Winooski, VT, USA, #CK04) and calculated as a relative percentage (%) of the control […]
(§5) Figure S4 . The cell viability by verproside in B16F10 and Melna -A cells. (A) CCK -8 assays in B16F10 cells. (B) CCK -8 assays in Melna -A cells.
(§6) (1 picture or pasted object on this page, not shown here)

[8] = tested on: B16F10 cells; experiment: CCK-8 cell viability assay, B16F10; assay type: cell-based, murine; conditions: 48 h
Method: as §3, §4, §5, §6

[9] = target: T2, mushroom tyrosinase; experiment: Affinity-based time-dependent assay (slow-binding kinetics); assay type: biochemical; conditions: for Time dependence of inhibition: mushroom tyrosinase, L-tyrosine
Method: Time-dependent assays were carried out using 144 U of mushroom tyrosinase and L-tyrosine as the substrate in 0.25 M phosphate buffer (pH 6.8) at 30 °C. […] The data were analysed using a nonlinear regression program [SigmaPlot (SPCC Inc., Chicago, IL)] to give the individual parameters for each curve; vi (initial velocity), vs (steady–state velocity), kobs (apparent first–order rate constant for the transition from vi to vs), A (intensity), A0 (included to correct any possible deviation in the baseline), and Ki^app (apparent Ki) according to Equations. 2–4[26–28]: (2) A=vst + (vi–vs)[1 – exp (–kobst)]/kobs (3) v/v0= exp(−kobst) (4) kobs=k6+ [(k5 × [I])/(Ki^app + [I])]

[10] = mTyr, L-tyrosine substrate (monophenolase), read-out: Mushroom Tyrosinase L-Tyrosine IC50
[11] = mTyr, L-DOPA substrate, read-out: Mushroom Tyrosinase L-DOPA IC50

## COc1ccc(C(=O)OC2C3C=COC(OC4OC(CO)C(O)C(O)C4O)C3C3(CO)OC23)cc1OC (centres unmarked) [6-O-Veratroyl catalpol (9), 6-O-Veratroyl catalpol]
[1]; [10]
  IC50: > 200 µM
[1]
  inhibition at 100 µM: 6.1%
[2]
  Control (area): 15756 area
[3]
  after tyrosinase (area): 11932 area
[4]; [11]
  IC50: > 200 µM

## O=C(O[C@H]1[C@@H]2C=CO[C@@H](O[C@@H]3O[C@H](CO)[C@@H](O)[C@H](O)[C@H]3O)[C@@H]2[C@@]2(CO)O[C@@H]12)c1ccc(O)cc1 [Catalposide (3), Catalposide]
[1]; [10]
  IC50: > 200 µM
[1]
  inhibition at 100 µM: 9.9%
[2]
  Control (area): 26121 area
[3]
  after tyrosinase (area): 21250 area
[4]; [11]
  IC50: > 200 µM

## COc1ccc(C(=O)OC2C3C=COC(OC4OC(CO)C(O)C(O)C4O)C3C3(CO)OC23)cc1O (centres unmarked) [Isovanillyl catapol (7), Isovanillyl catapol]
[1]; [10]
  IC50: > 200 µM
[1]
  inhibition at 100 µM: 10.1%
[2]
  Control (area): 12844 area
[3]
  after tyrosinase (area): 8093 area
[4]; [11]
  IC50: > 200 µM

## O=C(OC1C2C=COC(OC3OC(CO)C(O)C(O)C3O)C2C(O)(CO)C1Cl)c1ccc(O)c(O)c1 (centres unmarked) [Longifolioside A (2), Longifolioside A]
[1]; [10]
  IC50: 193 ± 10.5 µM
[1]
  inhibition at 100 µM: 36%
[2]
  Control (area): 10677 area
[3]
  after tyrosinase (area): 3852 area
  Relative metabolite intensity upon treatment with mTyr: significantly reduced
[4]; [11]
  IC50: > 200 µM

## COc1ccc(/C=C/C(=O)O[C@H]2[C@@H]3C=CO[C@@H](O[C@@H]4O[C@H](CO)[C@@H](O)[C@H](O)[C@H]4O)[C@@H]3[C@@]3(CO)O[C@@H]23)cc1O [Minecoside (8), Minecoside]
[1]; [10]
  IC50: 132 ± 8.3 µM
[1]
  inhibition at 100 µM: 41.7%
[2]
  Control (area): 976 area
[3]
  after tyrosinase (area): 465 area
[4]; [11]
  IC50: > 200 µM

## COc1cc(C(=O)O[C@H]2[C@@H]3C=CO[C@@H](O[C@@H]4O[C@H](CO)[C@@H](O)[C@H](O)[C@H]4O)[C@@H]3[C@@]3(CO)O[C@@H]23)ccc1O [Picroside II (5), Picroside II]
[1]
  IC50: > 200 µM
  inhibition at 100 µM: 5.3%
[2]
  Control (area): 17798 area
[3]
  after tyrosinase (area): 12194 area
[4]
  IC50: > 200 µM

## O=C(OC1C2CC3OCC(O)(C1Cl)C2C(OC1OC(CO)C(O)C(O)C1O)O3)c1ccc(O)c(O)c1 (centres unmarked) [Piscroside C (6), Piscroside C]
[1]; [10]
  IC50: > 200 µM
[1]
  inhibition at 100 µM: 6.7%
[2]
  Control (area): 44999 area
[3]
  after tyrosinase (area): 22171 area
[4]; [11]
  IC50: > 200 µM

## O=C(/C=C/c1ccc(O)c(O)c1)O[C@@H]1C2C=CO[C@H](O[C@@H]3O[C@H](CO)[C@@H](O)[C@H](O)[C@H]3O)C2[C@]2(CO)O[C@H]12 (some centres unmarked) [Verminoside (4), Verminoside]
[1]; [10]
  IC50: > 200 µM
[1]
  inhibition at 100 µM: 8.9%
[2]
  Control (area): 16481 area
[3]
  after tyrosinase (area): 2886 area
  Relative metabolite intensity upon treatment with mTyr: significantly reduced
[4]; [11]
  IC50: > 200 µM

## O=C(OC1C2C=COC(OC3OC(CO)C(O)C(O)C3O)C2C2(CO)OC12)c1ccc(O)c(O)c1 (centres unmarked) [Verproside (1), Verproside]
[5]
  IC50: 843 µM
[6]; hTyr, L-tyrosine substrate
  IC50: 197 µM
[6]; ratio of hTyr IC50 values, kojic acid / verproside
  Efficacy relative to positive control kojic acid in hTyr: 5.6 fold
[1]; mTyr, L-tyrosine (monophenolase), read-out: Ki (inhibition constant)
  Ki: 5.1 µM
[1]; [10]
  IC50: 31.2 ± 2.1 µM
[1]; mTyr
  Type of inhibition (monophenolase): competitive inhibition
[1]; mTyr, listed as verproside
  Type of inhibition (monophenolase): competitive
[1]
  inhibition at 100 µM: 98.4%
[2]
  Control (area): 112306 area
[3]
  after tyrosinase (area): 61907 area
  Relative metabolite intensity upon treatment with mTyr: significantly reduced
[7]
  Cell viability: did not significantly affect cell viability
[8]
  Cell viability: did not significantly affect cell viability
[4]; mTyr diphenolase activity
  Type of inhibition (diphenolase): competitive inhibition
[4]; [11]
  IC50: 177 ± 33.1 µM
[9]; fit of kobs to Equation (4)
  k5: 0.04496 s⁻¹
  k6: 0.00001103 s⁻¹
[9]; fit of kobs to Equation (4), read-out: Ki^app (apparent Ki)
  Ki: 2.4 mM
[9]; listed as verproside
  Time dependence of inhibition: time-dependent; also recorded: slow-binding
[9]; listed as verproside (1)
  Time dependence of inhibition: time-dependent inhibition
